Target: T1, human CRF receptors (Homo sapiens, UniProt P34998)
T1 construct: expressed in transfected cells; membrane suspension of stably transfected cells
T1 sequence (P34998 24-415): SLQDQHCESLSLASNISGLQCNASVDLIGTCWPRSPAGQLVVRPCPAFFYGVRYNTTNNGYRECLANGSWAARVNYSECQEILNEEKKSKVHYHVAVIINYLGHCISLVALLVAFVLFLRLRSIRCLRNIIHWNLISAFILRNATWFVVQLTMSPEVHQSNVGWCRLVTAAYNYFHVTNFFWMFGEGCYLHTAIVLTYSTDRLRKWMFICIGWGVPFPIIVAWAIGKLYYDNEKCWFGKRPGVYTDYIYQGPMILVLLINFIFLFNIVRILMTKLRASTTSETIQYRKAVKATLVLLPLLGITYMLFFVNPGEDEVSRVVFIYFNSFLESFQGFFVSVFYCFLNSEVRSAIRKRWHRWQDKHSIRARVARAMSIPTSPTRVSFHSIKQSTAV
Assay: CRF receptor radioligand binding assay (displacement of [125I]tyrosine-ovine CRF)
Settings: CRF receptor binding affinity, assayed by the methods of Example 9
Text: The effectiveness of a compound as a CRF receptor antagonist may be determined by various assay methods. Suitable CRF antagonists of this invention are capable of inhibiting the specific binding of CRF to its receptor and antagonizing activities associated with CRF. A compound of structure (I) may be assessed for activity as a CRF antagonist by one or more generally accepted assays for this purpose, including (but not limited to) the assays disclosed by DeSouza et al. (J. Neuroscience 7:88, 1987) and Battaglia et al. (Synapse 1:572, 1987). […] CRF receptor affinity may be determined by binding studies that measure the ability of a compound to inhibit the binding of a radiolabeled CRF (e.g., [^125I]tyrosine-CRF) to its receptor (e.g., receptors prepared from rat cerebral cortex membranes). […]
The compounds of this invention may be evaluated for binding activity to the CRF receptor by a standard radioligand binding assay as generally described by DeSouza et al. (J. Neurosci. 7:88-100, 1987). […]
More specifically, the binding assay is performed in 1.5 ml Eppendorf tubes using approximately 1×10^6 cells per tube stably transfected with human CRF receptors. […] Following two washes of the pellets, the tubes are cut just above the pellet and monitored in a gamma counter for radioactivity at approximately 80% efficiency. […]

## CCCC(CCC)N1N=C(C)n2nc(-c3ccc(OC)cc3C)c3nc(C)cc1c32 [Compound 8-3]
  Ki: < 100 nM

— US6583143B2, “CRF receptor antagonists and methods relating thereto” (Neurocrine Biosciences, Inc., priority 2000, dated 2003)
